Test results from patent publication US20120276186A1, “SUSTAINED RELEASE LATANOPROST IMPLANT” (priority 2011, published 2012).

Experiments:
solubility parameter = type: physicochemical
From the text: The solubility parameter for a substance is a numerical value which indicates the relative solvency behavior of that substance. The concept is discussed and defined in US 2008/0145403.
Latanoprost is very difficult to incorporate into biodegradable polymer matrices, because it is an oil. It has now been discovered, that this problem can be overcome by using a combination of high molecular weight PLA and PLGA polymers and fabricating the implant by melt extrusion or casting in an appropriate solvent. The oily drug substance (DS), i.e. latanoprost, helps plasticize the polymer and allows the production of a homogeneous polymer film. […] It has been determined that dichloromethane is a good solvent for PLA and PLGA, which have solubility parameters of about 21.1 MPa^0.5 and about 22.1 MPa^0.5, respectively. Thus, a solvent having a solubility parameter of from 17.1 to 26.1 MPa^0.5, preferably from 17.6 to 25.6, e.g. 21.1 or 22.1 MPa^0.5 may be used in the practice of this invention. Such solvents may include dichloromethane, isopropanol, ethanol, acetonitrile and octanol.

[1] = cited from earlier work

Row | Molecule | solubility parameter (solubility parameter) | solubility in organic solvents ([1]; acetone, ethanol, ethyl acetate, isopropanol, methanol and octanol) | solubility in acetonitrile ([1]; acetonitrile) | solubility in water ([1]; water)
1 | ClCCl [dichloromethane] | 19.8 MPa^0.5 |  |  | 
2 | poly(D,L-lactide) [PLA] | about 21.1 MPa^0.5 |  |  | 
3 | poly(D,L-lactide-co-glycolide) [PLGA] | about 22.1 MPa^0.5 |  |  | 
4 | CC(C)OC(=O)CCC/C=C\C[C@@H]1[C@@H](CC[C@@H](O)CCc2ccccc2)[C@H](O)C[C@@H]1O [Latanoprost] | 22-24 MPa^0.5 | freely soluble | very soluble | practically insoluble
5 | PEG 3350 | about 20 MPa^0.5 |  |  | 
